Measurements reported in patent publication US7491383B2, “Compositions having enhanced pharmacokinetic characteristics” (Allergan, Inc., priority 2001, dated 2009).
Where two headings read alike, the source gives them in different places.

How the values were obtained:
[1] = tested on: Rabbit Intraocular Pressure; conditions: 20 μL of 0.2% on cornea, mean ± S.E.M., n = 8
Text: In this study, the animals were placed into three groups consisting of a mix of age, size and sex.
One group of animals (both sexes) were used per screening study.
The following general procedure for administering the test compound employed in this study is presented below: • 1. Make sure that the 0.25% proparacaine Opthetic® mixture (topical local anesthetic), test compounds, and commercially available treats are available. • 2. Turn on the Digilab Modular One™ Pneuma Tonometer (pneumatonometer) [BioRad, Cambridge, Mass.]; it needs approximately 15 minutes to warm up. Turn on gas supply or air pump. • 3. Hold probe vertically with the point tip down and press “calibration check” for “zero”. • 4. Wipe the pneumatonometer probe with an alcohol swab, and inspect the tip membrane for holes. • 5. Set the external calibration device (air or water manometer) to 25 mm Hg, place the pneumatonometer probe in the calibration device to an ensure that it corresponded to 25±2 mm Hg. • 6. Obtain a rabbit. Make sure the recording data sheets are at hand. • 7. Gently restrain the rabbit via a commercial restrainer or a cotton towel. Measure the pupil diameter with the specialized ruler for each eye and record the values on the sheets provided. If the eyes are too dark to obtain a value by this method, a specialized penlight may be used. Obtain a pupil diameter measurement by shining the penlight on the cornea for one second. • 8. Slide the upper eyelid up the thumb and visually assess and score the degree of ocular surface redness. Record the value for each eye on the sheet provided. • 9. Put one drop of 0.25% proparacaine Opthetic® (50:50 mix of 0.5% proparacaine Opthetic®+Cellufresh®) on the surface of each eye. Wait one or more minutes for ophthetic to take effect. • 10. Place the pnematonometer tip on one eye at the site where the curvature of the cornea is greatest. Let the probe shank travel to the black line, not the red line. Persist until a stable reading with the standard deviation below 1.0 is obtained. Repeat the procedure for the contralateral eye. Record the data. (Note: If the animal is upset by the restraint, the reading will be artificially high and cannot be used. Use gentle restraint). • 11. At the end of the 0, 6, 24, 30, 48, 54, 72, 78 and 96 hour measurements, use an automatic pipette to apply 20 μL of the test compound to the surface of the cornea of one eye. After the 102 hour measurements, the eyes will be washed out with Refresh® and Prefrin®. • 12. Give the animal a treat and return the animal to its cage. • 13. Repeat steps 7 to 11 on the remaining animals in the group.
The following general procedure for measuring the effects of the test compound employed in this study is as follows: a reading is conducted at 0, 2, 4, 6, 24, 26, 28, 30, 48, 50, 52, 54, 72, 74, 76, 78, 96, 98, 100, and 102 hours. The pneumatonometer is calibrated before use with a manometer and the probe tip is wiped with an alcohol swab. One drop of 0.25% proparacaine Opthetic®, a corneal anesthetic, is placed on the cornea. Allow sufficient time (approximately 1 minute) for it to anesthetize the cornea before placing the probe on the eye. The eye is gently opened by the person doing the tonometer reading. The probe is placed on the cornea at the point of greatest curvature and a stable reading is obtained. The probe is held parallel to the floor and perpendicular to the line of the rabbit's sight. The reading is repeated until a reasonable reading can be obtained. The piston should be between the red and black lines or at the black line on the probe.

Intra Ocular Pressure = conditions: 0.131% Brimonidine and 0.126% linoleic acid
Text: The treatment is an ion pair formulation of 0.131% Brimonidine and 0.126% linoleic acid.

monkeys (sedation) = tested on: monkeys (sedation)
Protocol: This study involved cross overs and a one-week wash out in between the administration of the various compounds.
As done in a previous experiments, the following method was followed: • 1. 6 trained monkeys were placed in chairs and allowed to acclimate for approximately 30 minutes. • 2. Individual monkeys were brought into the “testing room” where they were allowed to adjust to the new environment for approximately 2 minutes. […] Sedation scores were recorded on an observation sheet. • 3. The monkey were returned to the group of animals assigned to this study. • 4. 2 baseline readings were done at T-0.5 and 0 hour. After the 0 hour reading one drop of the test compound was administered to the right eye. • 5. Steps 2 & 3 were repeated at T=0.5, 1, 2, 3 and 4 hour. • 6. Animals were monitored until they recover from effects of the drug. • 7. […] Test Compound Administration:
The scoring was conducted for each animal for the different test compounds. The average results are shown on table 1.

Compound: Brc1c(NC2=NCCN2)ccc2nccnc12.CCCCCC=CCC=CCCCCCCCC(=O)O [Brimonidine-linoleic acid]
- INTRAOCULAR PRESSURE ([1]; time 0 hr (reading before first dose)): 25.8 ± 1.2 mm Hg
- INTRAOCULAR PRESSURE ([1]; time 2 hr): 17.1 ± 1.0 mm Hg
- INTRAOCULAR PRESSURE ([1]; time 4 hr): 21.1 ± 1.0 mm Hg
- INTRAOCULAR PRESSURE ([1]; time 6 hr (dosed again after reading)): 23.9 ± 1.0 mm Hg
- INTRAOCULAR PRESSURE ([1]; time 24 hr (dosed after reading)): 25.6 ± 0.5 mm Hg
- INTRAOCULAR PRESSURE ([1]; time 26 hr): 19.9 ± 0.6 mm Hg
- INTRAOCULAR PRESSURE ([1]; time 28 hr): 22.9 ± 0.8 mm Hg
- INTRAOCULAR PRESSURE ([1]; time 30 hr (dosed after reading)): 23.0 ± 1.1 mm Hg
- INTRAOCULAR PRESSURE ([1]; time 48 hr (dosed after reading)): 26.5 ± 1.0 mm Hg
- INTRAOCULAR PRESSURE ([1]; time 50 hr): 20.4 ± 0.6 mm Hg
- INTRAOCULAR PRESSURE ([1]; time 52 hr): 23.4 ± 0.7 mm Hg
- INTRAOCULAR PRESSURE ([1]; time 54 hr (dosed after reading)): 24.1 ± 0.8 mm Hg
- INTRAOCULAR PRESSURE ([1]; time 72 hr (dosed after reading)): 26.8 ± 0.9 mm Hg
- INTRAOCULAR PRESSURE ([1]; time 74 hr): 21.1 ± 0.8 mm Hg
- INTRAOCULAR PRESSURE ([1]; time 76 hr): 23.9 ± 1.1 mm Hg
- INTRAOCULAR PRESSURE ([1]; time 78 hr (dosed after reading)): 25.2 ± 0.9 mm Hg
- INTRAOCULAR PRESSURE ([1]; time 96 hr (dosed after reading)): 27.9 ± 1.1 mm Hg
- INTRAOCULAR PRESSURE ([1]; time 98 hr): 20.1 ± 1.3 mm Hg
- INTRAOCULAR PRESSURE ([1]; time 100 hr): 23.9 ± 0.7 mm Hg
- INTRAOCULAR PRESSURE ([1]; time 102 hr): 25.3 ± 1.6 mm Hg
- percent change with time of Intra Ocular Pressure (Intra Ocular Pressure; 0 hr (administration of complex)): 0.0 mm Hg
- percent change with time of Intra Ocular Pressure (Intra Ocular Pressure; 1 hr after administration): −10.4 mm Hg
- percent change with time of Intra Ocular Pressure (Intra Ocular Pressure; 2 hr after administration): −16.0 mm Hg
- percent change with time of Intra Ocular Pressure (Intra Ocular Pressure; 4 hr after administration): −9.5 mm Hg
- percent change with time of Intra Ocular Pressure (Intra Ocular Pressure; 6 hr after administration): −9.4 mm Hg

Compound: tartrate of 5-bromo-6-(2-imidozolin-2-ylamino) quinoxaline [Brimonidine Tartrate, reference compound]
- sedation compared with the other test compounds (in words) (monkeys (sedation); 0.2%, one drop right eye): more sedation than dosing with Brimonidine-linoleic acid
- SEDATION SCORE (average, scale S=0 to S=4) (monkeys (sedation); 0.2%, one drop right eye, time 0 hr (baseline, before dosing)): 0.8
- SEDATION SCORE (average, scale S=0 to S=4) (monkeys (sedation); 0.2%, one drop right eye, time 0.5 hr): 0.8
- SEDATION SCORE (average, scale S=0 to S=4) (monkeys (sedation); 0.2%, one drop right eye, time 1 hr): 1.7
- SEDATION SCORE (average, scale S=0 to S=4) (monkeys (sedation); 0.2%, one drop right eye, time 2 hr): 2.6
- SEDATION SCORE (average, scale S=0 to S=4) (monkeys (sedation); 0.2%, one drop right eye, time 3 hr): 2.5
- SEDATION SCORE (average, scale S=0 to S=4) (monkeys (sedation); 0.2%, one drop right eye, time 4 hr): 2.7
- SEDATION SCORE (average, scale S=0 to S=4) (monkeys (sedation); 0.2%, one drop right eye, time −0.5 hr (baseline)): 0.7
- observed state of the monkeys on average (monkeys (sedation); usually from the 2-hour time point to the end of observations): sleepy and inactive with heavy eyes
